Reference: US5593984A, “Cephalosporin derivatives” (Yuhan Corporation, priority 1992, dated 1997)
Values after ≈ are worked out from the molar mass of the structure shown.

Assays:
Type in all cases: cell-based
[1] = tested on: Ps. aeruginosa DY-2; experiment: MIC by agar dilution, Ps. aeruginosa DY-2; settings: Pseudomonas aeruginosa, DY2, 17 h; Ps. aeruginosa DY-2; agar dilution, Mueller-Hinton agar; read-out: Minimal Inhibitory Concentration (MIC)
Summary of the method: (§1)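 Two-fold dilutions of compound were dispersed in Mueller-Hinton agar, inoculated with test strain at 10^6 CFU per ml, and incubated at 35°-37° C. for 17±1 hours; MIC read from agar dilution.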

[2] = tested on: Ps. aeruginosa NCTC 10490; experiment: MIC by agar dilution, Ps. aeruginosa NCTC 10490; settings: Pseudomonas aeruginosa, NCTC10490, 17 h, Mueller-Hinton agar, read-out: Minimal Inhibitory Concentration (MIC)
Summary of the method: as §1

[3] = tested on: Staph. aureus C-5113; experiment: MIC by agar dilution, Staph. aureus C-5113; settings: Staphylococcus aureus, C5113, 17 h, Mueller-Hinton agar, read-out: Minimal Inhibitory Concentration (MIC)
Summary of the method: as §1

[4] = tested on: B. subtilis ATCC 6633; experiment: MIC by agar dilution, B. subtilis ATCC 6633; settings: Bacillus subtilis, ATCC6633, 17 h; B. subtilis ATCC 6633; agar dilution, Mueller-Hinton agar; read-out: Minimal Inhibitory Concentration (MIC)
Summary of the method: as §1

[5] = tested on: E. coli DY-1; experiment: MIC by agar dilution, E. coli DY-1; settings: Escherichia coli, DY1, 17 h; E. coli DY-1; agar dilution, Mueller-Hinton agar; read-out: Minimal Inhibitory Concentration (MIC)
Summary of the method: as §1

[6] = tested on: Staph. aureus C-57; experiment: MIC by agar dilution, Staph. aureus C-57; settings: Staphylococcus aureus, C57, 17 h, Mueller-Hinton agar, read-out: Minimal Inhibitory Concentration (MIC)
Summary of the method: as §1

[7] = tested on: Ser. marcescens IFO 12648; experiment: MIC by agar dilution, Ser. marcescens IFO 12648; settings: Serratia marcescens, IFO12648, 17 h; Ser. marcescens IFO 12648; agar dilution, Mueller-Hinton agar; read-out: Minimal Inhibitory Concentration (MIC)
Summary of the method: as §1

[8] = tested on: S. epidermidis ATCC 12228; experiment: MIC by agar dilution, S. epidermidis ATCC 12228; settings: Staphylococcus epidermidis, ATCC12228, 17 h; S. epidermidis ATCC 12228; agar dilution, Mueller-Hinton agar; read-out: Minimal Inhibitory Concentration (MIC)
Summary of the method: as §1

[9] = tested on: E. coli No. 29; experiment: MIC by agar dilution, E. coli No. 29; settings: Escherichia coli, 17 h; E. coli No. 29; agar dilution, Mueller-Hinton agar; read-out: Minimal Inhibitory Concentration (MIC)
Summary of the method: as §1

[10] = tested on: Ps. aeruginosa ATCC 10145; experiment: MIC by agar dilution, Ps. aeruginosa ATCC 10145; settings: Pseudomonas aeruginosa, ATCC10145, 17 h, Mueller-Hinton agar, read-out: Minimal Inhibitory Concentration (MIC)
Summary of the method: as §1

[11] = tested on: K. pneumoniae NCTC 9632; experiment: MIC by agar dilution, K. pneumoniae NCTC 9632; settings: Klebsiella pneumoniae, NCTC9632, 17 h; K. pneumoniae NCTC 9632; agar dilution, Mueller-Hinton agar; read-out: Minimal Inhibitory Concentration (MIC)
Summary of the method: as §1

[12] = tested on: Staph. aureus Smith; experiment: MIC by agar dilution, Staph. aureus Smith; settings: Staphylococcus aureus, 17 h, Mueller-Hinton agar, read-out: Minimal Inhibitory Concentration (MIC)
Summary of the method: as §1

[13] = tested on: M. morganii DY-1; experiment: MIC by agar dilution, M. morganii DY-1; settings: Morganella morganii, DY1, 17 h; M. morganii DY-1; agar dilution, Mueller-Hinton agar; read-out: Minimal Inhibitory Concentration (MIC)
Summary of the method: as §1

[14] = tested on: Ent. cloacae IFO 13535; experiment: MIC by agar dilution, Ent. cloacae IFO 13535; settings: Enterobacter cloacae, IFO13535, 17 h; Ent. cloacae IFO 13535; agar dilution, Mueller-Hinton agar; read-out: Minimal Inhibitory Concentration (MIC)
Summary of the method: as §1

[15] = tested on: Prov. stuartii IFO 12930; experiment: MIC by agar dilution, Prov. stuartii IFO 12930; settings: Providencia stuartii, IFO12930, 17 h, Mueller-Hinton agar, read-out: Minimal Inhibitory Concentration (MIC)
Summary of the method: as §1

[16] = tested on: E. coli NIHJ JC-2; experiment: MIC by agar dilution, E. coli NIHJ JC-2; settings: Escherichia coli, NIHJJC2, 17 h; E. coli NIHJ JC-2; agar dilution, Mueller-Hinton agar; read-out: Minimal Inhibitory Concentration (MIC)
Summary of the method: as §1

[17] = tested on: Staph. aureus C-5216; experiment: MIC by agar dilution, Staph. aureus C-5216; settings: Staphylococcus aureus, C5216, 17 h, Mueller-Hinton agar, read-out: Minimal Inhibitory Concentration (MIC)
Summary of the method: as §1

[18] = tested on: Ent. aerogenes IFO 12979; experiment: MIC by agar dilution, Ent. aerogenes IFO 12979; settings: Klebsiella aerogenes, IFO12979, 17 h, Mueller-Hinton agar, read-out: Minimal Inhibitory Concentration (MIC)
Summary of the method: as §1

[19] = tested on: Staph. aureus ATCC 6538P; experiment: MIC by agar dilution, Staph. aureus ATCC 6538P; settings: Staphylococcus aureus, ATCC6538P, 17 h; Staph. aureus ATCC 6538P; agar dilution, Mueller-Hinton agar; read-out: Minimal Inhibitory Concentration (MIC)
Summary of the method: as §1

[20] = tested on: P. vulgaris NCTC 8313; experiment: MIC by agar dilution, P. vulgaris NCTC 8313; settings: Proteus vulgaris, NCTC8313, 17 h; P. vulgaris NCTC 8313; agar dilution, Mueller-Hinton agar; read-out: Minimal Inhibitory Concentration (MIC)
Summary of the method: as §1

| MIC [1] [µg/mL] | MIC [2] [µg/mL] | MIC [3] [µg/mL] | MIC [4] [µg/mL] | MIC [5] [µg/mL] | MIC [6] [µg/mL] | MIC [7] [µg/mL] | MIC [8] [µg/mL] | MIC [9] [µg/mL] | MIC [10] [µg/mL] | MIC [11] [µg/mL] | MIC [12] [µg/mL] | MIC [13] [µg/mL] | MIC [14] [µg/mL] | MIC [15] [µg/mL] | MIC [16] [µg/mL] | MIC [17] [µg/mL] | MIC [18] [µg/mL] | MIC [19] [µg/mL] | MIC [20] [µg/mL] | SMILES |
| --- | --- | --- | --- | --- | --- | --- | --- | --- | --- | --- | --- | --- | --- | --- | --- | --- | --- | --- | --- | --- |
| 3.13 (≈ 5.57 µM) | 0.78 (≈ 1.39 µM) | 0.78 (≈ 1.39 µM) | 0.2 (≈ 0.356 µM) | 0.05 (≈ 0.089 µM) | 3.13 (≈ 5.57 µM) | 0.2 (≈ 0.356 µM) | 0.1 (≈ 0.178 µM) | 0.05 (≈ 0.089 µM) | 1.56 (≈ 2.78 µM) | 0.1 (≈ 0.178 µM) | 0.39 (≈ 0.694 µM) | 0.39 (≈ 0.694 µM) | 0.78 (≈ 1.39 µM) | 0.012 (≈ 0.0214 µM) | 0.2 (≈ 0.356 µM) | 0.78 (≈ 1.39 µM) | 0.1 (≈ 0.178 µM) | 0.05 (≈ 0.089 µM) | 0.012 (≈ 0.0214 µM) | CO/N=C(\C(=O)N[C@@H]1C(=O)N2C(C(=O)[O-])=C(C[n+]3ccn4cccc4c3C)CS[C@H]12)c1nc(N)sc1Cl [Ex. 56, 7-β-[(Z)-2-(2-amino-5-chlorothiazol-4-yl)-2-methoxyiminoacetamido]-3-(1-methylpyrrolo[1,2-a]-pyrazinium-2-yl)methyl-3-cephem-4-carboxylate] |
| 1.56 (≈ 2.95 µM) | 0.2 (≈ 0.378 µM) | 0.2 (≈ 0.378 µM) | 0.2 (≈ 0.378 µM) | 0.025 (≈ 0.0473 µM) | 1.56 (≈ 2.95 µM) | 0.025 (≈ 0.0473 µM) | 0.05 (≈ 0.0946 µM) | 0.025 (≈ 0.0473 µM) | 0.78 (≈ 1.48 µM) | 0.012 (≈ 0.0227 µM) | 0.78 (≈ 1.48 µM) | 0.05 (≈ 0.0946 µM) | 0.1 (≈ 0.189 µM) | 0.012 (≈ 0.0227 µM) | 0.012 (≈ 0.0227 µM) | 0.39 (≈ 0.738 µM) | 0.025 (≈ 0.0473 µM) | 0.1 (≈ 0.189 µM) | 0.05 (≈ 0.0946 µM) | CO/N=C(\C(=O)N[C@@H]1C(=O)N2C(C(=O)[O-])=C(C[n+]3ccn4cccc4c3C)CS[C@H]12)c1nsc(N)n1 [Ex. 57, 7-β-[(Z)-2-(5-amino-1,2,4-thiadiazol-3-yl)-2-methoxyiminoacetamido]-3-(1-methylpyrrolo[1,2-a]-pyrazinium-2-yl)methyl-3-cephem-4-carboxylate] |
| 3.13 (≈ 5.29 µM) | 0.78 (≈ 1.32 µM) | 0.78 (≈ 1.32 µM) | 0.2 (≈ 0.338 µM) | 0.05 (≈ 0.0845 µM) | 3.13 (≈ 5.29 µM) | 0.2 (≈ 0.338 µM) | 0.1 (≈ 0.169 µM) | 0.05 (≈ 0.0845 µM) | 1.56 (≈ 2.63 µM) | 0.1 (≈ 0.169 µM) | 0.39 (≈ 0.659 µM) | 0.39 (≈ 0.659 µM) | 0.78 (≈ 1.32 µM) | 0.012 (≈ 0.0203 µM) | 0.2 (≈ 0.338 µM) | 0.78 (≈ 1.32 µM) | 0.1 (≈ 0.169 µM) | 0.05 (≈ 0.0845 µM) | 0.012 (≈ 0.0203 µM) | CO/N=C(\C(=O)N[C@@H]1C(=O)N2C(C(=O)[O-])=C(C[n+]3ccn4c(CO)ccc4c3C)CS[C@H]12)c1nc(N)sc1Cl [Ex. 58, 7-β-[(Z)-2-(2-amino-5-chlorothiazol-4-yl)-2-methoxyiminoacetamido]-3-(6-hydroxymethyl-1-methylpyrrolo[1,2-a]-pyrazinium-2-yl)methyl-3-cephem-4-carboxylate] |
| 12.5 (≈ 20.6 µM) | 1.56 (≈ 2.57 µM) | 0.78 (≈ 1.28 µM) | 0.1 (≈ 0.165 µM) | ≤ 0.006 | 6.25 (≈ 10.3 µM) | 0.025 (≈ 0.0412 µM) | 0.05 (≈ 0.0823 µM) | 0.012 (≈ 0.0198 µM) | 1.56 (≈ 2.57 µM) | 0.025 (≈ 0.0412 µM) | 0.39 (≈ 0.642 µM) | 0.025 (≈ 0.0412 µM) | 0.2 (≈ 0.329 µM) | ≤ 0.006 | 0.025 (≈ 0.0412 µM) | 0.78 (≈ 1.28 µM) | ≤ 0.006 | 0.1 (≈ 0.165 µM) | 0.012 (≈ 0.0198 µM) | CO/N=C(\C(=O)N[C@@H]1C(=O)N2C(C(=O)[O-])=C(C[n+]3ccn4c(Br)ccc4c3C)CS[C@H]12)c1nsc(N)n1 [Ex. 59, 7-β-[(Z)-2-(5-amino-1,2,4-thiadiazol-3-yl)-2-methoxyiminoacetamido]-3-(6-bromo-1-methylpyrrolo[1,2-a]pyrazinium-2-yl)methyl-3-cephem-4-carboxylate] |
